In US9745261B2, “Inhibitors of the MITF molecular pathway” (THE GENERAL HOSPITAL CORPORATION, priority 2013, dated 2017):

Columns and labels:
Dopamine D4.2 = biological target: T1, Dopamine D4.2 (Homo sapiens, UniProt P21917, DEL265-296); test: Radioligand binding, Dopamine D4.2
T1 construct: Eurofins Panlabs, Inc. (contract assay)

CDK2 = test: qPCR assay for CDK2 expression in SK-MEL-5 cells; assay type: cell-based, human; settings: Homo sapiens; SK-MEL-5 melanoma cells, up to 35 μM
Experimental: SK-MEL-5 cells were treated with compounds for 24 hours. Next, cells were lysed with DNase I (Ambion, from Cell to CT Lysis Mix). Lysed cells were delivered to a RT-PCR plate (Ambion, Cells to CT RT Mix) and the plates were then processed for reverse transcription to create cDNA. qPCR was performed by transferring cDNA from the RT-PCR plate to a qPCR plate containing PCR master mix (Roche, Probes Master), FAM Taqman probe/primer set for the target gene (human MITF, Applied Biosystem, 4331182 Hs01117294_m1), VIC Taqman probe/primer set for a house keeping gene (human GAPDH, Applied Biosystems C10228) and water. qPCR plates were cycled using a real-time PCR instrument (Roche, Light Cycler). Using the instrument software, a cycle call was generated when each well enters log phase amplification (Ct). The delta Ct value was determined by subtracting the Ct value of the control gene (GAPDH) from the Ct value of the target gene (MITF) in each well. The delta delta Ct value of each compound treatment was determined by averaging the delta Ct values of the mock well on each plate and subtracting that average from the delta Ct value of each compound well. […]
• 10. […] The RT assay plates are incubated at 37° C. for 1 hour and the reverse transcriptase is inactivated by incubating the plates for 1 minute at 95° C. • 13. cDNA is stored at −80° C. until ready for qPCR analysis […]

T1 sequence (P21917 with tags, fused parts or gaps DEL265-296): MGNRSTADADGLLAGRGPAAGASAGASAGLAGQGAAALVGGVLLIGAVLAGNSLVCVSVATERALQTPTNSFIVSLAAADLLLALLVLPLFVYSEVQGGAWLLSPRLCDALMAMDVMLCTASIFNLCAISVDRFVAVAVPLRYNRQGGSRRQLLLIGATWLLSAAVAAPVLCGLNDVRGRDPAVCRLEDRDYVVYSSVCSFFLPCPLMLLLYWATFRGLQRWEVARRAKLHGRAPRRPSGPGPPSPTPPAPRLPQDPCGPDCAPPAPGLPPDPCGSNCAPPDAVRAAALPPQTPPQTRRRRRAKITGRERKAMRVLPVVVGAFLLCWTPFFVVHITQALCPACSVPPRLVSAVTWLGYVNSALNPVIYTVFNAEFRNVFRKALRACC

Row | SMILES | inhibition at 10 µM (Dopamine D4.2) [%] | EC50 (CDK2) [nM]
1 | NS(=O)(=O)c1ccc(NC2=CC(=O)c3ccccc3C2=O)cc1 [Example 1, 4-((1,4-Dioxo-1,4-dihydronaphthalen-2-yl)amino)benzenesulfonamide] | 4 | –
2 | NS(=O)(=O)c1ccc(NC2=CC(=O)c3ccccc3C2=O)cc1 [4-((1,4-dioxo-1,4-dihydronaphthalen-2-yl)amino)benzenesulfonamide] | – | 500
